Results: patent US4918083A, “4,5 Dihydroimidazole compounds which have useful pharmaceutical utility” (Beecham Group p.l.c., priority 1986, dated 1990)
Counter-ions that a name gives are not always drawn. Like-named read-outs stand apart in the source and are kept apart here.

Assays:
α2 -Adrenoceptor = molecular target: T1, α2 -Adrenoceptor (Homo sapiens, UniProt P08913); test: α2-Adrenoceptor Binding ([3H] Rauwolscine, human platelet membranes)
T1 construct: Human platelet membranes; from tissue; host or cells: human platelet membranes
T1 sequence (P08913 1-465): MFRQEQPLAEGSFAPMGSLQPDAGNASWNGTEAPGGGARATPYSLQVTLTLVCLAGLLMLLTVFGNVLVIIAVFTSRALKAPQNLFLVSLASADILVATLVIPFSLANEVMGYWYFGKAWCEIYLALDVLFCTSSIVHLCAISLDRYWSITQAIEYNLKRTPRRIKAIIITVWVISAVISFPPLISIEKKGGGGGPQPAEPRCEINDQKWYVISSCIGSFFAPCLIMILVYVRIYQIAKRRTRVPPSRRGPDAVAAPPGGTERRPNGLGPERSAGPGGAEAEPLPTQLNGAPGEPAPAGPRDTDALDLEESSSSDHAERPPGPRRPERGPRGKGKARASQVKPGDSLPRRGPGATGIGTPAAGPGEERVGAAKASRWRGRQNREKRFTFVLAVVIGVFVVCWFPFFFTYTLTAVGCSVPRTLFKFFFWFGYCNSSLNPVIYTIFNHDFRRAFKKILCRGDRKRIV
Method: (B) α2 -Adrenoceptor Binding
Human platelet membranes were incubated with [^3 H] Rauwolscine (0.5-1.0 nM) for 30 minutes at 30° C. with varying concentrates of the drug (0.1-10,000 nM). The binding assay was stopped by filtering and rinsing on GF/B glass fibre filters.

blood glucose = test: Reversal of Adrenaline-Exacerbated Glucose Intolerance in Mice; format: in vivo, CFLP female mice; settings: Mus musculus, 2 h, oral gavage, glucose 1 g/kg and adrenaline 300 μg/kg s.c. 30 min later, 0-120 min, vs water dosed control, read-out: % Reduction in area under Blood Glucose curve; for inhibition in vivo at 20 µmol/kg: 20 μmol/kg
Method: (A) Reversal of Adrenaline-Exacerbated Glucose Intolerance in Mice
CFLP female mice of about 25 g were fasted for 24 hours prior to receiving water (10 ml/kg) or compounds by oral gavage. Thirty minutes later, glucose (1 g/kg) and adrenaline (300 μg/kg) were injected subcutaneously. Blood samples for glucose analysis were taken serially from the tail of each mouse at 0, 30, 60 90 and 120 minutes after dosing glucose and the results are expressed below as the percentage reduction in the area under the blood glucose curve; the compound treated groups being compared to the water dosed control group. Six mice were used in each treatment group.

[1] = human platelet membranes, [3H] Rauwolscine 0.5-1.0 nM, 30 minutes at 30° C., read-out: Binding Affinity Ki

Row | Compound | Ki (α2 -Adrenoceptor; [1]) | inhibition in vivo at 20 µmol/kg (blood glucose) | inhibition in vivo at 10 µmol/kg (blood glucose; 10 μmol/kg) | inhibition in vivo at 5 µmol/kg (blood glucose; 5 μmol/kg) | Ki (α2 -Adrenoceptor)
1 | COc1ccc(C2c3ccccc3CN2CC2=NCCN2)cc1 (stereo not drawn) [Example 12, 2-[2H-(1-(4-Methoxyphenyl)-1,3-dihydroisoindole)methyl]-4,5-dihydroimidazole] | 2 nM | 34% | – | – | –
2 | CCC1c2ccccc2CN1CC1=NCCN1 (stereo not drawn) [Example 2, 2-[2H-(1-Ethyl-1,3-dihydroisoindole)methyl]-4,5-dihydroimidazole dihydrochloride] | 4.1 nM | 27% | – | – | –
3 | c1ccc(CC2c3ccccc3CN2CC2=NCCN2)cc1 (stereo not drawn) [Example 13, 2-[2H-(1-Benzyl-1,3-dihydroisoindole)methyl]-4,5-dihydroimidazole] | 40 nM | 16% | – | – | –
4 | CC1c2ccc(Cl)cc2CN1CC1=NCCN1 (stereo not drawn) [Example 3, 2-[2H-(5-Chloro-1-methyl-1,3-dihydroisoindole)methyl]-4,5-dihydroimidazole dihydrochloride] | 3.4 nM | – | 41% | – | –
5 | Cc1ccc(C2c3ccccc3CN2CC2=NCCN2)cc1 (stereo not drawn) [Example 11, 2-[2H-(1-(4-Methylphenyl)-1,3-dihydroisoindole)methyl]-4,5-dihydroimidazole] | 25 nM | – | – | – | –
6 | c1ccc(C2c3ccccc3CN2CC2=NCCN2)cc1 (stereo not drawn) [Example 9, 2-[2H-(1-Phenyl-1,3-dihydroisoindole)methyl]-4,5-dihydroimidazole] | 6.9 nM | 31% | – | – | –
7 | CC1c2ccc(F)cc2CN1CC1=NCCN1 (stereo not drawn) [Example 5, 2[2H-(5-Fluoro-1-methyl-1,3-dihydroisoindole)methyl]-4,5-dihydroimidazole] | 0.8 nM | – | – | 20% | –
8 | Fc1ccc(C2c3ccccc3CN2CC2=NCCN2)cc1 (stereo not drawn) [Example 8, 2-[2H-(1-(4-Fluorophenyl)-1,3-dihydroisoindole)methyl]-4,5-dihydroimidazole] | 2.7 nM | 21% | – | – | –
9 | Clc1cccc(C2c3ccccc3CN2CC2=NCCN2)c1 (stereo not drawn) [Example 7] | 1.8 nM | 22% | – | – | –
10 | CC(C)C1c2ccccc2CN1CC1=NCCN1 (stereo not drawn) [Example 10, 2-(2H-[1-(1-Methylethyl)-1,3-dihydroisoindole]methyl)-4,5-dihydroimidazole dihydrochloride hemihydrate] | 34 nM | – | – | – | –
11 | Clc1ccc(C2c3ccccc3CN2CC2=NCCN2)cc1 (stereo not drawn) [Example 6, 2-[2H-(1-(4-Chlorophenyl)-1,3-dihydroisoindole)methyl]-4,5-dihydroimidazole] | 3.6 nM | 15% | – | – | –
12 | CC1c2ccccc2CN1CC1=NCCN1 (stereo not drawn) [Example 1, 2-[2H-(1-Methyl-1,3-dihydroisoindole)methyl]-4,5-dihydroimidazole] | – | 34% | – | – | 1.7 nM
13 | CC1c2cc(Cl)ccc2CN1CC1=NCCN1 (stereo not drawn) [Example 4, 2-[2H-(6-Chloro-1-methyl-1,3-dihydroisoindole)methyl]-4,5-dihydroimidazole] | 6.4 nM | 27% | – | – | –
